Results from patent publication US20100099673A1, “DECAHYDROQUINOLINE ANALOGS AS CB2 RECEPTOR MODULATORS, USEFUL IN THE TREATMENT OF PAIN, RESPIRATORY AND NON-RESPIRATORY DISEASES” (priority 2007, published 2010).
Like-named read-outs stand apart in the source and are kept apart here.

Assays:
human CB2 = human CB2 (Homo sapiens, UniProt P34972); experiment: Cyclic AMP assay (HTRF), CHO cells expressing human CB2; type: cell-based; conditions: for Emax: read-out: CB2 Emax
Protocol: (§1) Chinese Hamster Ovary cells (CHO) expressing human CB1 or human CB2 (3.3×10^5 cells/ml) were preincubated for 15 min at room temperature with tested agonist and 3-isobutyl-1-methylxanthine (IBMX; 200 μM) in phosphate buffered saline containing 1 mg/ml BSA (assay buffer) followed by 30 min incubation with forskolin in a total volume of 10 μl. The optimal forskolin concentration for each cell line was established in a separate experiment and adjusted to stimulate 70% of maximal cAMP response. cAMP content was measured using an HTRF assay (CisBio) according to the manufacturer's two step protocol.
(§2) In this assay, compounds of the invention have an IP ranging from 1 nM to >17000 nM. The Examples below have an IP ranging from 1 nM to >17000 nM.

human CB1 = human CB1 (Homo sapiens, UniProt P21554); experiment: Cyclic AMP assay (HTRF), CHO cells expressing human CB1; type: cell-based
Sequence of human CB1 (P21554 whole entry): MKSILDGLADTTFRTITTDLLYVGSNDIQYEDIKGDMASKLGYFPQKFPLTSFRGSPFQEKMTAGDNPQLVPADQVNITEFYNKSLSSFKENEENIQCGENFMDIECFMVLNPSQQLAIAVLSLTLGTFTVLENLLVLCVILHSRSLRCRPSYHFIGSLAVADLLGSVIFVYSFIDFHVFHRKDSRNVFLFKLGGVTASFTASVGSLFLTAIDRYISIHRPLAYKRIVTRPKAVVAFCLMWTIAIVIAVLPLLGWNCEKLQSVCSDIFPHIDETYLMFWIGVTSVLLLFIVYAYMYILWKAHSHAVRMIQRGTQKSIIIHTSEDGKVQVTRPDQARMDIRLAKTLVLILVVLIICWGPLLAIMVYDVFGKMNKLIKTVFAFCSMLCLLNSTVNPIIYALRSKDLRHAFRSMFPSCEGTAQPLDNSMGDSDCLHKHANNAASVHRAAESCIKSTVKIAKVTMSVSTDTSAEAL
Protocol: as §1, §2

[1] = IP of agonist in forskolin-stimulated cAMP HTRF assay, CHO cells expressing human CB2, read-out: CB2 (HTRF)
[2] = forskolin-stimulated cAMP HTRF assay, CHO cells expressing human CB2
[3] = IP of agonist in forskolin-stimulated cAMP HTRF assay, CHO cells expressing human CB1, read-out: CB1 (HTRF)

Sequence of human CB2 (P34972 whole entry): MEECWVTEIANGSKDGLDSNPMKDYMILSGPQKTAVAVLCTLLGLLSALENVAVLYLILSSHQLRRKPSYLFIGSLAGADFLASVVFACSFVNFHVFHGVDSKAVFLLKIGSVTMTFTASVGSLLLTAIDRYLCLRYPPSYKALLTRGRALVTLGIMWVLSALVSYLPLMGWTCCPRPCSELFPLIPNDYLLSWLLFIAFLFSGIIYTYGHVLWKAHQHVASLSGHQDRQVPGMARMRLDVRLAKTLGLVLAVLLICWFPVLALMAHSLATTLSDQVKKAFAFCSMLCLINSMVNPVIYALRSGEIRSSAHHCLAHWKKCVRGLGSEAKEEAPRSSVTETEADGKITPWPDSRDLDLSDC

SMILES	EC50 (human CB2; [1]) [nM]	Emax (human CB2; [2]) [%]	EC50 (human CB1; [3]) [nM]	EC50 (human CB2) [nM]	Emax (human CB2; CHO) [%]	EC50 (human CB1) [nM]
O=C(c1cccnc1)N1CC[C@](O)(c2ccccc2)[C@H]2CCCC[C@H]21 (relative stereo) [Example 135, cis-4-phenyl-1-(pyridin-3-ylcarbonyl)decahydroquinolin-4-ol]	10	100	6780			
CC(C)(O)c1ccnc(N2CC[C@](O)(c3ccccc3)[C@H]3CCCC[C@H]32)c1 (relative stereo) [Example 287, (cis)-1-[4-(1-hydroxy-1-methylethyl)pyridin-2-yl]-4-phenyldecahydroquinolin-4-ol]	1.3	99	10500			
O=C(c1ccon1)N1CC[C@](O)(c2ccccc2)[C@H]2CCCC[C@H]21 (single isomer, unassigned) [Example 131, 1-(isoxazol-3-ylcarbonyl)-4-phenyldecahydroquinolin-4-ol]	37	100	> 17000			
O=C(c1ccccc1)N1CCC(O)(c2cccnc2)[C@H]2CCCC[C@@H]21 (stereo in doubt) [Example 258, 1-benzoyl-4-pyridin-3-yldecahydroquinolin-4-ol]	938	86				
O[C@]1(c2ccccc2)CCN(Cc2n[nH]c3ccccc23)[C@@H]2CCCC[C@@H]21 (stereo in doubt) [Example 274, 1-(1H-indazol-3-ylmethyl)-4-phenyldecahydroquinolin-4-ol]				19	102	> 17000
Cn1cc(S(=O)(=O)N2CC[C@](O)(c3ccccc3)[C@H]3CCCC[C@H]32)c(C(F)(F)F)n1 (stereo in doubt) [Example 289, 1-{[1-methyl-3-(trifluoromethyl)-1h-pyrazol-4-yl]sulfonyl}-4-phenyldecahydroquinolin-4-ol]	41	101	> 17000			
O=C(c1ccccc1)N1CCC(O)(Cc2ccccc2)[C@H]2CCCC[C@@H]21 (stereo partly shown) [Example 260, 1-benozyl-4-benzyldecahydroquinolin-4-ol]	90	93				
O=C(Nc1cccnc1)N1CC[C@](O)(c2ccccc2)[C@H]2CCCC[C@H]21 [Example 291, 4-hydroxy-4-phenyl-n-pyridin-3-yloctahydroquinoline-1(2H)-carboxamide]	1100		> 17000		76	
